The text below walks through data of US7598382B2, “Aryl substituted imidazoquinolines” (Coley Pharmaceutical Group, Inc., priority 2002, dated 2009).

Counter-ions that a name gives are not always drawn.

`CCCc1nc2c(N)nc3cc(Cc4ccccc4)ccc3c2n1CC(C)(C)O` (hydrate or solvate) [Example 432, 1-(4-Amino-7-benzyl-2-propyl-1H-imidazo[4,5-c]quinolin-1-yl)-2-methylpropan-2-ol]: the melting point (usually the temperature of the solid-liquid transition) lay within 130 to 131 °C.
For `COCc1nc2c(N)nc3cc(-c4cccc(C(=O)N5CCOCC5)c4)ccc3c2n1CC(C)(C)O` (hydrate or solvate) [Example 401, {3-[4-Amino-1-(2-hydroxy-2-methylpropyl)-2-methoxymethyl-1H-imidazo[4,5-c]quinolin-7-yl]phenyl}morpholin-4-ylmethanone], the melting point lay within 176 to 177 °C.
With `CCOCc1nc2c(N)nc3cc(-c4cncc(CO)c4)ccc3c2n1CC(C)(C)O` [Example 133, 1-[4-Amino-2-ethoxymethyl-7-(5-hydroxymethylpyridin-3-yl)-1H-imidazo[4,5-c]quinolin-1-yl]-2-methylpropan-2-ol], the melting point was in the range of 188 to 190 °C.
The figure for `CCCc1nc2c(N)nc3cc(CCc4ccc5sc(C)nc5c4)ccc3c2n1CC(C)C` (as salt: HCl) [Example 457, 7-[2-(2-Methylbenzothiazol-5-yl)ethyl]-1-(2-methylpropyl)-2-propyl-1H-imidazo[4,5-c]quinolin-4-amine] is greater than 250 °C; for `CCOc1ccccc1-c1ccc2c(c1)nc(N)c1nc(COC)n(CC(C)(C)O)c12` [Example 394, 1-[4-Amino-7-(2-ethoxyphenyl)-2-methoxymethyl-1H-imidazo[4,5-c]quinolin-1-yl]-2-methylpropan-2-ol] it is 173 to 175 °C.
For `CCCc1nc2c(N)nc3cc(-c4cccnc4)ccc3c2n1CCCCNC(=O)C1CCCC1` (hydrate or solvate) [Example 382, N-{4-[4-Amino-2-propyl-7-(pyridin-3-yl)-1H-imidazo[4,5-c]quinolin-1-yl]butyl}cyclopentanecarboxamide] the value was 180 to 182 °C.
In turn, `CCCc1nc2c(N)nc3cc(/C=C/c4ccccc4OC)ccc3c2n1CC(C)C` [Example 445, (E)-7-[2-(2-Methoxyphenyl)vinyl]-1-(2-methylpropyl)-2-propyl-1H-imidazo[4,5-c]quinolin-4-amine] had a melting point of 214 to 216 °C.
The figure for `COCCc1nc2c(N)nc3cc(-c4ccccc4)ccc3c2n1CCCN1CCCC1=O` [Example 206, 1-{3-[4-Amino-2-(2-methoxyethyl)-7-phenyl-1H-imidazo[4,5-c]quinolin-1-yl]propyl}pyrrolidin-2-one] is 187 to 191 °C; for `CCOCc1nc2c(N)nc3cc(-c4cccnc4)ccc3c2n1CC1CCNCC1` (as salt: hydrochloride) [Example 177, 2-Ethoxymethyl-1-(piperidin-4-ylmethyl)-7-(pyridin-3-yl)-1H-imidazo[4,5-c]quinolin-4-amine trihydrochloride] it is greater than 250 °C.
On to `CCOCc1nc2c(N)nc3cc(-c4cccc(C(=O)N5CCCC5)c4)ccc3c2n1CCCOC` (as salt: HCl) [Example 175, {3-[4-Amino-2-ethoxymethyl-1-(3-methoxypropyl)-1H-imidazo[4,5-c]quinolin-7-yl]phenyl}pyrrolidin-1-ylmethanone], for which the melting point was 145 to 146 °C.
Regarding `COCCc1nc2c(N)nc3cc(-c4ccncc4)ccc3c2n1CCCN1CCCC1=O` [Example 184, 1-{3-[4-Amino-2-(2-methoxyethyl)-7-(pyridin-4-yl)-1H-imidazo[4,5-c]quinolin-1-yl]propyl}pyrrolidin-2-one], the melting point was 232 to 235 °C.
The figure for `CCCc1nc2c(N)nc3cc(CCc4ccccc4OC)ccc3c2n1CC(C)C` (as salt: HCl) [Example 460, 7-[2-(2-Methoxyphenyl)ethyl]-1-(2-methylpropyl)-2-propyl-1H-imidazo[4,5-c]quinolin-4-amine] is greater than 250 °C.
Molecule `CCOCc1nc2c(N)nc3ccc(-c4cccnc4)cc3c2n1CC(C)(C)O` [Example 148, 1-[4-Amino-2-ethoxymethyl-8-(pyridin-3-yl)-1H-imidazo[4,5-c]quinolin-1-yl]-2-methylpropan-2-ol] showed a melting point of 222 to 223 °C.
`CCCCc1nc2c(N)nc3cc(-c4ccsc4)ccc3c2n1CC(C)C` [Example 1, 2-Butyl-1-isobutyl-7-(thiophen-3-yl)-1H-imidazo[4,5-c]quinolin-4-amine] came in with a melting point of 229 to 230 °C.
For `CCc1ccc(-c2ccc3nc(N)c4ncn(CC(C)C)c4c3c2)cc1` [Example 118, 8-(4-Ethylphenyl)-1-(2-methylpropyl)-1H-imidazo[4,5-c]quinolin-4-amine] the value was 238 to 240 °C.
As to `CCOCc1nc2c(N)nc3cc(-c4cccnc4)ccc3c2n1CC1CCN(C(=O)C2CCCO2)CC1` (stereo not drawn) [Example 182, 2-Ethoxymethyl-7-(pyridin-3-yl)-1-{[1-(tetrahydrofuran-2-ylcarbonyl)piperidin-4-yl]methyl}-1H-imidazo[4,5-c]quinolin-4-amine], the melting point lay within 191 to 192 °C.
On to `CCCc1nc2c(N)nc3cc(-c4ccccc4)ccc3c2n1CC(C)(C)NS(C)(=O)=O` [Example 200, N-[2-(4-Amino-7-phenyl-2-propyl-1H-imidazo[4,5-c]quinolin-1-yl)-1,1-dimethylethyl]methanesulfonamide], for which the melting point was 135 to 141 °C.
`CC(C)Cn1cnc2c(N)nc3cc(CCc4ccccc4)ccc3c21` [Example 430, 1-(2-Methylpropyl)-7-phenethyl-1H-imidazo[4,5-c]quinolin-4-amine] displayed a melting point of 172 to 173 °C.
`CCCCn1c(COCC)nc2c(N)nc3ccc(-c4cccnc4)cc3c21` [Example 19, 1-Butyl-2-ethoxymethyl-8-(pyridin-3-yl)-1H-imidazo[4,5-c]quinolin-4-amine] displayed a melting point of 220 to 222 °C.
`CCOCc1nc2c(N)nc3cc(-c4cncc(CO)c4)ccc3c2n1CC(C)C` [Example 115, {5-[4-Amino-2-ethoxymethyl-1-(2-methylpropyl)-1H-imidazo[4,5-c]quinolin-7-yl]pyridin-3-yl}methanol] had a melting point of 211 to 212 °C.
`CCOCc1nc2c(N)nc3cc(-c4cccnc4)ccc3c2n1C[C@@H](O)CO` [Example 488, (R)-3-[4-Amino-2-ethoxymethyl-7-(pyridin-3-yl)-1H-imidazo[4,5-c]quinolin-1-yl]propane-1,2-diol] registered a melting point of 202 to 204 °C.
The figure for `COCc1nc2c(N)nc3cc(-c4cncc(CO)c4)ccc3c2n1CC(C)(C)O` (hydrate or solvate) [Example 402, 1-[4-Amino-7-(5-hydroxymethylpyridin-3-yl)-2-methoxymethyl-1H-imidazo[4,5-c]quinolin-1-yl]-2-methylpropan-2-ol] is 224 to 225 °C; for `COCc1nc2c(N)nc3cc(-c4cccnc4)ccc3c2n1CC(C)(C)O` [Example 396, 1-[4-Amino-2-methoxymethyl-7-(pyridin-3-yl)-1H-imidazo[4,5-c]quinolin-1-yl]-2-methylpropan-2-ol] it is 225 to 225.5 °C; for `CCCCCCC1(CCCCCC)c2cc(-c3ccc4c(c3)nc(N)c3nc(COCC)n(CC(C)(C)O)c34)ccc2-c2ccc(-c3ccc4c(c3)nc(N)c3nc(COCC)n(CC(C)(C)O)c34)cc21` [Example 475, 1-(4-Amino-7-{7-[4-amino-2-ethoxymethyl-1-(2-hydroxy-2-methylpropyl)-1H-imidazo[4,5-c]quinolin-7-yl]-9,9-dihexyl-9H-fluoren-2-yl}-2-ethoxymethyl-1H-imidazo[4,5-c]quinolin-1-yl)-2-methylpropan-2-ol] it is 261 to 265 °C.
With `CCCc1nc2c(N)nc3cc(CCc4cccc(S(N)(=O)=O)c4)ccc3c2n1CC(C)C` [Example 456, 3-{2-[4-Amino-1-(2-methylpropyl)-2-propyl-1H-imidazo[4,5-c]quinolin-7-yl]ethyl}benzenesulfonamide], the melting point was 250 to 251 °C.
In the case of `CCOCc1nc2c(N)nc3cc(-c4cccnc4)ccc3c2n1CCCCNC(=O)NC(C)C` [Example 379, N-{4-[4-Amino-2-ethoxymethyl-7-(pyridin-3-yl)-1H-imidazo[4,5-c]quinolin-1-yl]butyl}-N′-(1-methylethyl)urea], the melting point is 192 to 194 °C.
`CCOCc1nc2c(N)nc3cc(-c4cccnc4)ccc3c2n1CCNC(=O)C(C)C` [Example 386, N-{2-[4-Amino-2-ethoxymethyl-7-(pyridin-3-yl)-1H-imidazo[4,5-c]quinolin-1-yl]ethyl}-2-methylpropanamide] registered a melting point of 213 to 215 °C.
In turn, `CCOCc1nc2c(N)nc3cc(-c4ccsc4)ccc3c2n1CC(C)(C)O` [Example 125, 1-[4-Amino-2-ethoxymethyl-7-(thiophen-3-yl)-1H-imidazo[4,5-c]quinolin-1-yl]-2-methylpropan-2-ol] came in with a melting point of 204 to 205 °C.
Consider `CCOCc1nc2c(N)nc3cc(-c4cccnc4)ccc3c2n1C[C@H]1COC(C)(C)O1` [Example 489, (S)-1-[(2,2-Dimethyl-1,3-dioxolan-4-yl)methyl]-2-ethoxymethyl-7-(pyridin-3-yl)-1H-imidazo[4,5-c]quinolin-4-amine], for which the melting point lay within 157 to 158 °C.
Consider `CCc1nc2c(N)nc3cc(-c4cccnc4)ccc3c2n1CC1CCNCC1` (as salt: hydrochloride) [Example 405, 2-Ethyl-1-(piperidin-4-ylmethyl)-7-(pyridin-3-yl)-1H-imidazo[4,5-c]quinolin-4-amine trihydrochloride], for which the melting point is greater than 250 °C.
`CCOCc1nc2c(N)nc3cc(-c4cccnc4)ccc3c2n1CCCCS(=O)(=O)NC` [Example 369, Methyl 4-[4-amino-2-ethoxymethyl-7-(pyridin-3-yl)-1H-imidazo[4,5-c]quinolin-1-yl]butane-1-sulfonamide] returned a melting point of 216 to 218 °C.
For `CC(C)Cn1cnc2c(N)nc3ccc(CCCCc4ccccc4)cc3c21` [Example 426, 1-(2-Methylpropyl)-8-(4-phenylbutyl)-1H-imidazo[4,5-c]quinolin-4-amine] the value was 176 to 177 °C; for `CCCc1nc2c(N)nc3cc(/C=C/c4ccc5sc(C)nc5c4)ccc3c2n1CC(C)C` [Example 441, (E)-7-[2-(2-Methylbenzothiazol-5-yl)vinyl]-1-(2-methylpropyl)-2-propyl-1H-imidazo[4,5-c]quinolin-4-amine], 210 to 212 °C.
